The values that follow come from paper PMC10451632, “Site Mutation Improves the Expression and Antimicrobial Properties of Fungal Defense” (Antibiotics, 2023).

Molecules are shown by their SMILES. In brackets after ≈: the same amount, converted by molar mass. Entries after “also recorded” stand apart in the source; their conditions may differ. Where two headings read alike, the source gives them in different places. Bridge positions count the residues as written; N and C are the ends. Peptide text beside a SMILES is read from it.

Data set [1] deals with Staphylococcus aureus ATCC 43300. Kind of data set: microbe, parasite or virus in culture. Format: cell-based. As to the method: (§1) The experimental operation of the expression of the Plectasin variant in P. pastoris in well plates, shaking flasks, and 5 L level fermentation was performed as referenced in previous studies. Candidates were identified through three different levels of screening. Firstly, a large number of transformants were screened through well plates to induce expression and determined by the inhibition zone assay (against S. aureus ATCC 43300). Secondly, the transformants with obvious inhibition zones were sequenced to obtain protein sequence information, then induced expression at the shake level. The supernatant was collected and purified to obtain the target protein; the anti-Staphylococcus aureus activity of the protein was detected by a MIC assay. Finally, the codons of candidate sequences were optimized, the expression vector was reconstructed, the optimal transformers were obtained, and the high-density cultivation was performed in a 5 L fermenter. The final agent was determined by high protein yield and good activity (Figure 2).
(§2) The MIC value of PN7 against bacteria was determined by the microtiter broth dilution method. Briefly, bacteria grown to the exponential phase were diluted into MHB; subsequently, 90 μL of bacterial suspension (10^5 CFUs/mL) was mixed with 10 μL of different concentrations of PN7 in a sterilized 96-well microtiter plate (Nunc). MIC values were recorded after incubation for 16–18 h at 37 °C based on the lowest concentrations of peptides in which no visible bacterial growth was observed.

The subject of a further data set is S. aureus ATCC 25923. The format is cell-based, Staphylococcus aureus. The protocol: as §1, §2
Another data set deals with S. aureus CVCC 546. The format is cell-based, Staphylococcus aureus. As to the method:
as §1, §2

Data set [2] has as its system Gram-negative bacteria such as Escherichia coli, Salmonella, and Pseudomonas aeruginosa. Kind of data set: MIC against Gram-negative bacteria. The format is cell-based. The conditions noted are these: Gram-negative bacteria (Table 6). As to the method: as §2
A further data set deals with human keratinocyte HaCaT. Kind of data set: Cytotoxicity, MTT assay. Format: cell-based. Particulars: HaCaT cells, at 128 mg/mL (so in the source). The protocol: (§3) The cytotoxicity of PN7 was evaluated by MTT (Beyotime, Shanghai, China) assay.
(In general: Tetrazolium assays rely on reduction of a dye to a coloured formazan, in cell work by metabolically active cells.)

Data set [3] relates to mouse macrophages RAW264.7. As to the kind of experiment: Cytotoxicity, MTT assay. The format is cell-based. As to the method:
as §3

For data set [4], the system named is S. aureus ATCC 43300. Kind of data set: Salt stability, MIC read-out. Format: cell-based, Staphylococcus aureus. The protocol: The influence of ions on PN7 activity was determined in two ways.
The first method of operation: PN7 was prepared into 1280 μg/mL mother liquor supplemented with 50, 100, 200, 300, and 500 mM NaCl (or KCl, MgCl2, CaCl2), then was diluted twice gradient by ddH2O. Then, 10 μL was added into 90 μL bacterial solution and cultured for 16–18 h to determine the MIC.
The second method of operation: 10 μL peptide solution and 10 μL NaCl (or KCl, MgCl2, CaCl2) solution with different concentrations were added to 80 μL bacterial solution. The final concentration of ions in the whole system was 50, 100, 150, 200, and 250 mM. The MIC against S. aureus ATCC 43300 was determined.

Data set [5] in a line: Stability in simulated gastric fluid, MIC read-out. The format is in vitro ADME. The protocol: (§4) The stability of peptide PN7 in SGF, SIF, and 25% or 50% mouse serum was carried out as previously described. A final concentration of 1280 μg/mL PN7 was prepared and incubated at 37 °C and then diluted twice. The MIC was determined.
The nature of data set [6]: Serum stability, MIC read-out. The format is in vitro ADME. The conditions noted are these: 25% or 50% mouse serum, 1280 μg/mL PN7, 37 °C, triplicate. As to the method:
as §4

Data set [7] concerns S. aureus ATCC 43300. Kind of data set: SEM morphological observation. Format: cell-based, Staphylococcus aureus. The conditions noted are these: 2× MIC, 30 min. As to the method: To further characterize the bactericidal effects of peptide, SEM was used to visualize the morphological changes. S. aureus ATCC 43300 cells were treated with PN7. Cells for SEM were processed as described previously.

Data set [8] deals with S. aureus ATCC 43300. As to the kind of experiment: Membrane permeability, PI staining by FACS. Format: cell-based, Staphylococcus aureus. The conditions noted are these: 2× MIC, 10^8 CFU/mL, 37 °C. The protocol:
Figure 8 In vitro antimicrobial analysis of PN7. (A): Time-kill curve of PN7, Plectasin, and vancomycin against S. aureus ATCC. All experiments were performed in triplicate. (B): The PAE of 1×, 2× and 4× MIC of PN7 and vancomycin against S. aureus ATCC 43300 (the MIC values of PN7 and vancomycin against S. aureus ATCC 43300 were 8 μg/mL and 1μg/mL, respectively). All experiments were performed in triplicate. (C): The morphological influence of PN7 on S. aureus ATCC 43300 was observed by SEM. (D,E): The effects of PN7 (D) and Plectasin (E)) on membrane permeability were analyzed by FACS. The logarithmic phase S. aureus ATCC 43300 cells (10^8 CFU/mL) were incubated with or without 2× MIC peptide solutions at 37 °C at different times. All experiments were performed in triplicate. Ple stands for the Plectasin treatment group, Van stands for the vancomycin treatment group, and CK stands for the untreated group. TEXT PRINTED IN THE PICTURE: (D) PN7: 34.4% (2×; 90min); 31.2% (2×; 75min); 30.4% (2×; 60min); 19.2% (2×; 45min); 16.7% (2×; 30min); 1.94% (2×; 15min) | (E) Ple: 32.0% (2×; 90min); 27.4% (2×; 75min); 25.2% (2×; 60min); 12.8% (2×; 45min); 12.0% (2×; 30min); 2.11% (2×; 15min) DOUBTS OF THE COPYIST ABOUT THIS PICTURE: Panels D and E: the picture prints no measure for the percentages, only labels such as "2×PN7-90min: 34.4%" / Panels D and E: "CK: 0.54%" is the untreated control, not a substance, and was left out
The fluorescent dye propidium iodide (PI; Solarbio, Beijing, China) was used to detect the effect of PN7 on the membrane permeability of Staphylococcus aureus. The test method refers to the descriptions in previous studies.
For orientation: A flow cytometer gives signals particle by particle.

Where [9] appears, read: microtiter broth dilution, MHB, 10^5 CFUs/mL, 16–18 h at 37 °C.

One may read the cell viability as a read-out of living cells in per cent, often relative to untreated cells. With `CC[C@H](C)[C@@H]1NC(=O)[C@H](CO)NC(=O)[C@H](CCCCN)NC(=O)[C@@H]2CSSC[C@@H](C(=O)N[C@@H](Cc3ccc(O)cc3)C(=O)O)NC(=O)[C@H](CCCCN)NC(=O)[C@@H]3CSSC[C@H](NC(=O)[C@H](CCCNC(=N)N)NC(=O)CNC(=O)[C@H](CC(=O)O)NC(=O)[C@H](CC(=O)O)NC(=O)[C@H](CCC(=O)O)NC(=O)[C@H](Cc4ccc(O)cc4)NC(=O)[C@H](Cc4c[nH]c5ccccc45)NC(=O)[C@@H]4CCCN4C(=O)CNC(=O)[C@H](CC(N)=O)NC(=O)[C@@H](NC(=O)CNC(=O)[C@H](Cc4ccccc4)NC(=O)CN)CSSC[C@H](NC(=O)[C@H](Cc4ccc(O)cc4)NC(=O)CNC(=O)CNC(=O)[C@H](CCCCN)NC(=O)[C@H](Cc4ccc(O)cc4)NC(=O)CNC(=O)[C@H](CCCCN)NC1=O)C(=O)N[C@@H](C)C(=O)N[C@@H](CCCCN)C(=O)NCC(=O)NCC(=O)N[C@@H](Cc1ccccc1)C(=O)N[C@@H](C(C)C)C(=O)N3)C(=O)N[C@@H](Cc1c[nH]cn1)C(=O)N[C@@H](CC(N)=O)C(=O)N[C@@H](Cc1c[nH]cn1)C(=O)N2` [PN7] (H-GFGCNGPWYEDDGRCHNHCKSIKGYKGGYCAKGGFVCKCY-OH; disulfide 4-30, 15-37, 19-39 (inferred); N-terminus and C-terminus assumed), the MIC in data set [1] (S. aureus 43300, purified protein induced by shaking flasks) turned out to be 4 µg/mL (≈ 0.908 µM); in data set [1] (setting [9]), 8 µg/mL (≈ 1.82 µM); against S. aureus ATCC 25923 (S. aureus 25923, purified protein induced by shaking flasks), 16 µg/mL (≈ 3.63 µM); against S. aureus ATCC 25923 (setting [9]) it was 16 µg/mL (≈ 3.63 µM); against S. aureus CVCC 546 (S. aureus 546, purified protein induced by shaking flasks), 4 µg/mL (≈ 0.908 µM); with S. aureus CVCC 546 (setting [9]) it was 1 µg/mL (≈ 0.227 µM). In addition, the MIC entry in [2] is on record as “over 128 μg/mL”. For the same compound, the cell viability in the data set with human keratinocyte HaCaT is given as 85.36%; in data set [3] (RAW264.7 cells, MTT, at 128 mg/mL (so in the source)) it was 92.77%. In [3] (RAW264.7 and HaCaT cells (Figure 6B,C), 128 μg/mL), this compound yielded a survival of more than 85%. For the same compound, the “influence of monovalent cations (Na+ and K+) on activity” value in the data set with S. aureus ATCC 43300 [4] (NaCl or KCl, MIC against S. aureus ATCC 43300) is recorded as “no influence”. Also, the “MIC value after incubation with different ions” value in the data set on S. aureus ATCC 43300 [4] (mother liquor with 50–500 mM salt, then diluted with ddH2O) is “did not change”. Further, the “activity after incubation with simulated gastric juice (SGF)” value in data set [5] (1280 μg/mL PN7, 37 °C, then two-fold dilution, triplicate) is reported as “conserved full activity”. The resistance to pepsin entry in [5] (Figure 7E) is on record as “resistant to pepsin”. Further, the serum stability result in data set [6] is listed as “strong resistance to the serum effect; also recorded: stable in serum”. Besides, in the data set with S. aureus ATCC 43300 [7], the “cell morphology by SEM” value is listed as “shrinkage only appears in the cell surface”. Also, the “PI-staining percentage of cells” value with S. aureus ATCC 43300 [8] (30 min) is on record as 16.7%; in the data set with S. aureus ATCC 43300 [8] (60 min), 30.4%; in the data set on S. aureus ATCC 43300 [8] (90 min), 34.4%.
